Results from the supplement of paper PMC10307832.

Key:
Assay in all cases: relative viability (nuclei count vs DMSO), 5 days (fraction); higher = more cells survive
[1] = compound: C1/C(=C\C2=CC=CS2)/C(=O)/C(=C/C3=CC=CS3)/C1 + O=C(CCCCCCC(=O)Nc1ccccc1)NO [Vorinostat] (partner 1 µM)
In short: (§1)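 Cells from lung cancer lines were seeded into 1536-well plates and, one day later, dosed by pin tool. Treatments were either a single drug or a fixed dose of an anchor drug with five library-drug doses (not always all listed) in √10 steps. After 5 days, nuclei were stained in a one-step fixation (final 0.05% Triton X-100, 1% formaldehyde, 1 ug/ml Hoechst) and counted on 4× images, and relative viability is the treated-to-vehicle nuclei ratio, as the median of duplicate plates.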

[2] = compound: C[C@]12O[C@H](C[C@]1(O)CO)n1c3ccccc3c3c4c(c5c6ccccc6n2c5c31)CNC4=O [Lestaurtinib] + CC1(C)CCC(c2ccc(Cl)cc2)=C(CN2CCN(c3ccc(C(=O)NS(=O)(=O)c4ccc(N[C@H](CCN5CCOCC5)CSc5ccccc5)c(S(=O)(=O)C(F)(F)F)c4)cc3)CC2)C1 [Navitoclax] (partner 0.5 µM)
In short: as §1

Lestaurtinib + Olaparib = compound: C[C@]12O[C@H](C[C@]1(O)CO)n1c3ccccc3c3c4c(c5c6ccccc6n2c5c31)CNC4=O [Lestaurtinib] + O=C(c1cc(Cc2n[nH]c(=O)c3ccccc23)ccc1F)N1CCN(C(=O)C2CC2)CC1 [Olaparib] (partner 8 µM)
In short: as §1

[3] = compound: C1/C(=C\C2=CC=CS2)/C(=O)/C(=C/C3=CC=CS3)/C1 + C[C@@H](Oc1cc(-c2cnn(C3CCNCC3)c2)cnc1N)c1c(Cl)ccc(F)c1Cl [Crizotinib] (partner 1 µM)
In short: as §1

Cell Line | relative viability ([1]; first compound 0.2 µM) | relative viability ([1]; first compound 0.6325 µM) | relative viability ([1]; first compound 2 µM) | relative viability ([1]; first compound 6.325 µM) | relative viability ([1]; first compound 20 µM) | relative viability ([2]; first compound 0.005 µM) | relative viability ([2]; first compound 0.01581 µM) | relative viability ([2]; first compound 0.05 µM) | relative viability ([2]; first compound 0.1581 µM) | relative viability ([2]; first compound 0.5 µM) | relative viability (Lestaurtinib + Olaparib; first compound 0.005 µM) | relative viability (Lestaurtinib + Olaparib; first compound 0.01581 µM) | relative viability (Lestaurtinib + Olaparib; first compound 0.05 µM) | relative viability (Lestaurtinib + Olaparib; first compound 0.1581 µM) | relative viability (Lestaurtinib + Olaparib; first compound 0.5 µM) | relative viability ([3]; first compound 0.2 µM) | relative viability ([3]; first compound 0.6325 µM) | relative viability ([3]; first compound 2 µM) | relative viability ([3]; first compound 6.325 µM) | relative viability ([3]; first compound 20 µM)
NCI-H1666 | 1.09 | 1.02 | 0.874 | 0.893 | 0.928 | 1.18 | 1.05 | 1.08 | 0.581 | 0.355 | 0.779 | 0.799 | 0.871 | 0.976 | 0.827 | 1.23 | 1.19 | 1.09 | 0.643 | 0.974
201T | 0.965 | 0.951 | 1.07 | 0.728 | 0.935 | 1.21 | 1.22 | 1.29 | 1.28 | 1.18 | 0.89 | 0.712 | 0.882 | 0.937 | 0.552 | 1.05 | 1.04 | 1.07 | 0.996 | 1.01
NCI-H2009 | 0.721 | 0.733 | 0.729 | – | 0.68 | 1.16 | 1.25 | 1.06 | 1.3 | 0.22 | 0.589 | 0.754 | 0.577 | 0.843 | 0.473 | 1.11 | 1.09 | 1.02 | 0.971 | 1.06
NCI-H2228 | 0.668 | 0.563 | 0.764 | 0.396 | 0.504 | 0.985 | 1.29 | 0.839 | 0.554 | 0.162 | 0.644 | 0.455 | 0.318 | 0.432 | 0.137 | 0.669 | 0.528 | 0.515 | 0.374 | 0.441
LU99A | 0.461 | 0.475 | 0.462 | 0.441 | 0.387 | 0.707 | 0.72 | 0.373 | 0.378 | 0.211 | 0.211 | 0.25 | 0.161 | 0.196 | 0.142 | 0.539 | 0.665 | 0.625 | 0.466 | 0.562
NCI-H1437 | 0.91 | 0.853 | 0.837 | 0.701 | 0.866 | 1.13 | 1.2 | 1 | 1.02 | 0.689 | 0.671 | 0.662 | 0.571 | 0.67 | 0.553 | 0.954 | 0.886 | 0.828 | 0.902 | 0.824
EKVX | 0.893 | 0.625 | 0.873 | – | 0.678 | 1.03 | 0.889 | 0.965 | 0.929 | 0.45 | 0.941 | – | 0.947 | 1.07 | 0.641 | 1.01 | 0.982 | 0.922 | 0.929 | 0.926
IA-LM | 0.959 | 1.09 | 1.01 | 0.885 | 0.852 | 0.887 | 0.994 | 0.817 | 0.85 | 0.236 | 0.835 | 0.944 | 0.991 | 0.819 | 0.774 | 1.19 | 0.721 | 0.651 | 0.747 | 1
NCI-H520 | 0.767 | 0.787 | 0.733 | – | 0.72 | 1.11 | 1.15 | 1.05 | 0.455 | 0.319 | 0.383 | 0.421 | 0.315 | 0.319 | 0.254 | 0.882 | 0.966 | 0.715 | 0.655 | 0.751
LCLC-97TM1 | 0.845 | 0.818 | 0.757 | 0.631 | 0.66 | 0.636 | 0.564 | 0.246 | 0.14 | 0.249 | – | 0.456 | 0.299 | 0.185 | 0.188 | 0.328 | 0.433 | 0.453 | 0.252 | 0.462
NCI-H2170 | 0.898 | 0.814 | 0.787 | 0.728 | 0.766 | 0.378 | 0.393 | 0.368 | 0.442 | 0.263 | 0.551 | 0.596 | 0.407 | 0.45 | 0.206 | 1.29 | 1.29 | 1.26 | 1.03 | 1.07
NCI-H3122 | 1.08 | 1.08 | 0.907 | 0.639 | 0.708 | 1.13 | 1.1 | 1.12 | 1.12 | 0.536 | 0.862 | 0.637 | 0.552 | 0.598 | 0.5 | 0.247 | 0.273 | 0.279 | 0.215 | 0.272
PC-14 | 0.855 | 0.809 | 0.843 | 0.614 | 0.687 | 1.09 | 1.07 | 0.765 | 0.863 | 0.607 | 0.252 | 0.243 | 0.242 | 0.238 | 0.179 | 0.995 | 0.838 | 0.819 | 0.725 | 0.956
EPLC-272H | 0.464 | 0.384 | 0.615 | 0.318 | 0.358 | 1.29 | 0.924 | 0.6 | 0.643 | 0.689 | 0.58 | 0.53 | 0.503 | 0.359 | 0.108 | 1 | 0.885 | 1.01 | 0.797 | 0.735
A-427 | 0.884 | 0.838 | 0.855 | 0.828 | 0.89 | 1.04 | 0.858 | 0.914 | 0.455 | 0.329 | 0.802 | 0.745 | 0.712 | 0.485 | 0.315 | 1.06 | 0.888 | 0.946 | 0.813 | 0.955
